Laboratory results published in patent US20110098314A1, “STATINS FOR THE TREATMENT OF OCULAR HYPERTENSION AND GLAUCOMA” (ALCON, INC., priority 2005, published 2011).
pIC50: −log10 of the molar value.

What was measured:
[1] = test system: intraocular pressure; experiment: Acute IOP response in lasered (hypertensive) eyes of conscious cynomolgus monkeys; assay type: in vivo, cynomolgus monkey; conditions: single topical ocular application of 300 μg; IOP at 1, 3 and 6 hours
Description: Acute IOP Response in Lasered (Hypertensive) Eyes of Conscious Cynomolgus Monkeys.
Intraocular pressure (IOP) was determined with an Alcon Pneumatonometer after light corneal anesthesia with 0.1% proparacaine. Eyes were washed with saline after each measurement. After a baseline IOP measurement, the test compound was instilled in one 30 μL aliquot to the right eyes only of nine cynomolgus monkeys. The vehicle was instilled in the right eyes of six additional animals. Subsequent IOP measurements were taken at 1, 3, and 6 hours.

[2] = Penetration of the cornea following topical ocular administration; assay type: in vivo
Text: The use of topical ocular administration is therefore strongly preferred in the present invention.

[3] = test system: intraocular pressure; conditions: administered orally for at least one year; cited from earlier work
[4] = test system: GTM-3 cells; experiment: GTM-3 cell viability (neutral red uptake); assay type: cell-based, human; conditions: 24 h, FIG. 5
Description: (§1) FIG. 5 depicts bar graphs showing the effect of lovastatin on GTM-3 cell fibronectin secretion and viability. Transformed human trabecular meshwork (GTM-3) cells were incubated in the presence or absence of test agents in serum-free DMEM media for 24 h (37° C., 5% CO2). Cell supernatants were then assayed for fibronectin content by ELISA and cell monolayers were assayed for viability by neutral red uptake.
(§2) The effect of lovastatin on both basal (vehicle) and stimulated (TGF32) GTM-3 (a transformed human TM cell strain) secretion of fibronectin was tested. GTM-3 cells were incubated in the presence or absence of test agents in serum-free media for 24 h (37° C., 5% CO2), then changes in secreted fibronectin levels were determined by ELISA of cell supernatants. Neutral red uptake assays were performed on the remaining cell monolayers, in order to determine the effect of test agents on GTM-3 cell viability. […] Thus, by virtue of the ability to reduce the excessive accumulation of extracellular matrix (e.g. fibronectin), statins are useful in the treatment of glaucoma and to control or lower IOP.

[5] = test system: CTGF gene expression in cultured human trabecular meshwork (TM) cells; experiment: Inhibition of TGFβ2 stimulated CTGF gene expression (QPCR, CTGF/18S cDNA); assay type: cell-based
Description: FIGS. 1-3 are graphs setting forth the effects of statins on basal and TGFβ2-induced CTGF gene expression in cultured human trabecular meshwork cells.
The effectiveness of statins on CTGF gene expression in cultured human trabecular meshwork (TM) cells was studied. In these experiments, the CTGF/18S cDNA levels were measured by quantitative reverse-transcription PCR (QPCR) and compared.

[6] = test system: intraocular pressure; experiment: IOP response in lasered (hypertensive) eyes of conscious cynomolgus monkeys following repeated dosing; assay type: in vivo, cynomolgus monkey
Description: Response in Lasered (Hypertensive) Eyes of Conscious Cynomolgus Monkeys Following Repeated Dosing.
In a further study, the intraocular pressure-lowering efficacy of lovastatin was measured in conscious ocular hypertensive monkeys using a five-dose, three-day study design. The test item was administered in one 30 μL aliquot to the lasered (unilateral laser trabeculoplasty) eye of eight animals. The vehicle was instilled in the lasered eyes of six additional animals as a control. Doses 1, 3, and 5 were instilled at 0900 hours on three consecutive days; doses 2 and 4 at 1630 hours on days 1 and 2. IOP was measured at 1, 3 and 6 hours after doses 1 and 5. IOP was also measured at 16 hours after dose 4. The percent change from time 0 baseline was determined for each animal for every IOP measurement.
There was an average reduction in IOP of 12.5% in the control group. In a subsequent study, wherein nine doses of lovastatin were administered over a five day period, IOP was reduced by up to 7.4%.

[7] = test system: fibronectin secretion by GTM-3 cells; experiment: Inhibition of TM fibronectin secretion (ELISA of cell supernatants); assay type: cell-based, human; conditions: 24 h, FIG. 5
Description: as §1, §2

[8] = 1 hour after fifth topical ocular instillation of 300 μg
[9] = 3 hours after fifth topical ocular instillation of 300 μg
[10] = 6 hours after fifth topical ocular instillation of 300 μg

Row | SMILES | IOP lowering after single topical ocular application [1] | ability to reach intraocular tissues via penetration of the cornea [2] | change in intraocular pressure in patients [3] | CTGF gene expression by cultured human TM cells [5] | also measured
1 | CC[C@H](C)C(=O)O[C@H]1C[C@H](O)C=C2C=C[C@H](C)[C@H](CC[C@@H](O)CC(O)CC(=O)O)[C@H]21 (stereo in doubt) [pravastatin, (βR,δR,1S,2S,6S,8S,8aR)-1,2,6,7,8,8a-hexahydro-β,δ,6-trihydroxy-2-methyl-8-[(2S)-2-methyl-1-oxobutoxy]-1-naphthaleneheptanoic acid] | did not significantly lower IOP | able to reach intraocular tissues via penetration of the cornea | – | – | –
2 | CC(C)n1c(/C=C/[C@@H](O)C[C@@H](O)CC(=O)O)c(-c2ccc(F)cc2)c2ccccc21 (relative stereo) [fluvastatin, (3R,5S,6E)-rel-7-[3-(4-fluorophenyl)-1-(1-methylethyl)-1H-indol-2-yl]-3,5-dihydroxy-6-heptenoic acid] | did not significantly lower IOP | – | – | – | –
3 | CC(C)c1c(C(=O)Nc2ccccc2)c(-c2ccccc2)c(-c2ccc(F)cc2)n1CC[C@@H](O)C[C@@H](O)CC(=O)O (relative stereo) [atorvastatin, (βR,δR)-2-(4-fluorophenyl)-β,δ-dihydroxy-5-(1-methylethyl)-3-phenyl-4-[(phenylamino)carbonyl]-1H-Pyrrole-1-heptanoic acid] | did not significantly lower IOP | do not readily penetrate the cornea | – | – | –
4 | CC[C@H](C)C(=O)O[C@H]1C[C@@H](C)C=C2C=C[C@H](C)[C@H](CC[C@@H]3C[C@@H](O)CC(=O)O3)[C@H]21 [lovastatin, 2(S)-2-methyl-butanoic acid (1S,3R,7S,8S,8aR)-1,2,3,7,8,8a-hexahydro-3,7-dimethyl-8-[2-[(2R,4R)-tetrahydro-4-hydroxy-6-oxo-2H-pyran-2-yl]ethyl]-1-naphthalenyl ester] | did not significantly lower IOP | – | no clinically significant change in intraocular pressure | significantly reduce | GTM-3 cell viability [4]: without affecting cell viability; pIC50 ([5]; dose-dependent, FIG. 3): 7.12; average IOP lowering [6, 8]: 8.3 mmHg; average IOP lowering, percent change from baseline [6, 8]: 22.8%; average IOP lowering [6, 9]: 8.1 mmHg; average IOP lowering, percent change from baseline [6, 9]: 21.5%; average IOP lowering [6, 10]: 9.5 mmHg; average IOP lowering, percent change from baseline [6, 10]: 25.5%; IOP reduction ([6]; subsequent study, nine doses over a five day period): up to 7.4%; TGFβ2-stimulated fibronectin secretion ([7]; serum-free media): suppressed; basal fibronectin secretion ([7]; vehicle (basal)): suppression
5 | CCC(C)(C)C(=O)O[C@H]1C[C@@H](C)C=C2C=C[C@H](C)[C@H](CC[C@@H]3C[C@@H](O)CC(=O)O3)[C@H]21 [simvastatin, 2,2-dimethyl-butanoic acid (1S,3R,7S,8S,8aR)-1,2,3,7,8,8a-hexahydro-3,7-dimethyl-8-[2-[(2R,4R)-tetrahydro-4-hydroxy-6-oxo-2H-pyran-2-yl]ethyl]-1-naphthalenyl ester] | – | – | no clinically significant change in intraocular pressure | significantly reduce | –
6 | CC[C@H](C)C(=O)O[C@H]1CCC=C2C=C[C@H](C)[C@H](CC[C@@H]3C[C@@H](O)CC(=O)O3)[C@H]21 [mevastatin, (2S)-2-methyl butanoic acid (1S,7S,8S,8aR)-1,2,3,7,8,8a-hexahydro-7-methyl-8-[2-[(2R,4R)-tetrahydro-4-hydroxy-6-oxo-2H-pyran-2-yl]ethyl]-1-naphthalenyl ester] | – | – | – | significantly reduce | –
